Where two headings read alike, the source gives them in different places. A value given as a limit tells only on which side of the number the result lay.

This is an account of results in publication PMC8387043, “Host Poly(A) Polymerases PAPD5 and PAPD7 Provide Two Layers of Protection That Ensure the Integrity and Stability of Hepatitis B Virus RNA” (Journal of Virology, 2021).

Data set [1] concerns HCMV. Put plainly: Antiviral selectivity panel, CPE in MRC-5 cells. The class given is cell-based, human cytomegalovirus. The note with it: Human betaherpesvirus 5, MRC5; MRC-5, CPE.
In data set [2] the test system is WNV. Briefly: Antiviral selectivity panel, CPE in Vero76 cells. The note with it: West Nile virus, Vero 76. The class given is cell-based. The protocol:
HepG2.2.15 (30,000 cells/well) were plated in 96-well collagen-treated plates and incubated at 37°C. Compounds were half-log serially diluted and added in duplicate to 96-well microtiter plates. The plates were incubated for a total duration of 6 days, after which the culture medium was removed for the HBsAg and HBeAg CLIA assays (AutoBio Diagnostics Co., China) performed according to the manufacturer’s instructions. Secreted HBV DNA was extracted (Realtime Ready cell lysis kit; Roche, Mannheim, Germany) and quantified in a qPCR assay (LightCycler 480 SYBR green I master mix; Roche) with the 5′-[…]-3′ (sense) and 5′-[…]-3′ (antisense) primers using the PCR conditions of denaturing at 95°C for 5 min followed by 40 cycles of amplification at 95°C for 15 s and 60°C for 30 s. Antiviral selectivity studies against a panel of different DNA and RNA viruses were performed at ImQuest BioSicences (Frederick, MD, USA). Briefly, test compounds were evaluated using 6 doses, including the highest concentration of 30 μM and five serial half-logarithmic dilutions in triplicate for the antiviral assays.

Data set [3] concerns HCV. Briefly: Antiviral selectivity panel, luciferase in Huh-7 cells. The class given is cell-based. The note with it: Hepatitis C virus; Huh-7, Luciferase.
The test system of data set [4] is HBV PRE. Put plainly: HBV PRE cis-element reporter plasmids (HBsAg or Gluc) transfected in Huh-7 cells. The note with it: Hepatitis B virus.
Data set [5] can be described thus: Cytotoxicity (summary statement). Type of data set: cell-based. The note with it: several cell lines from different tissue origins; 30 μM highest concentration tested.
The subject of data set [6] is HBV. Put plainly: Intracellular HBV pgRNA and sRNA by Northern blotting in HepG2.2.15 cells. Type of data set: cell-based, hepatitis B virus. The note with it: HepG2.2.15, 48 h, 1,000 nM. The protocol:
(§1) Total cellular RNA was extracted from HepG2.2.15 or HepAD38 cells treated with or without antiviral compounds using TRIzol reagent according to the manufacturer's directions (Thermo Fisher Scientific, Waltham, MA). Northern blotting was performed as described previously ([1]). Briefly, total RNA was separated in a 1.5% agarose gel and transferred onto an Amersham Hybond-XL membrane (product no. GERPN303S; GE Healthcare, IL, USA). Membranes were probed with an [α-^32P]UTP (PerkinElmer, CT, USA)-labeled minus strand-specific full-length HBV riboprobe (3.2 kb) transcribed from plasmid pSP65_HBV(+) DNA. Membranes were exposed to a phosphoimager screen, and the hybridization signals were quantified using Image Studio software (Li-Cor Biosciences, NE, USA).

Data set [7] concerns HBV. Put plainly: HBV replication intermediates and viral proteins in HepG2.2.15 cells (Northern, Western, particle gel, Southern). The class given is cell-based, hepatitis B virus. The note with it: HepG2.2.15, 6 days; ETV, GLS-4, cmpdA 1 μM; AB-452 70 nM. The protocol: as §1
Total intracellular viral core-associated DNA was extracted as described previously ([1]) and analyzed by Southern blotting hybridization with an [α-^32P]UTP-labeled full-length HBV riboprobe (3.2 kb) that specifically hybridized to minus strand of viral DNA. Membranes were exposed to a phosphoimager screen, and the hybridization signals were quantified using Image Studio software.
HepG2.2.15 or HepAD38 cells cultured in a 12-well plate were lysed with 200 μl Laemmli sample buffer (Bio-Rad, PA, USA) supplemented with 2.5% 2-mercaptoethanol (Sigma-Aldrich, MO, USA). […]

The nature of data set [8]: in vitro. The class given is cell-based. The note with it: human. From the text: TABLE 3 Cytotoxicity of AB-452 against cells derived from various tissues | column: AB-452 CC50 (μM)
Data set [9] deals with Human rhinovirus. Briefly: Antiviral selectivity panel, CPE in H1-HeLa cells. Type of data set: cell-based. The note with it: Human rhinovirus sp.

As to `COCCCOc1cc2c(nc1OC)-c1cc(=O)c(C(=O)O)cn1[C@H](C(C)C)C2` [AB-452], the EC50 in [1] was greater than 30000 nM; in data set [2] it was greater than 30000 nM; in [3] it was greater than 30000 nM; in [4] (120 h, read-out: EC50, Gluc_dHBx (Gluc activity)), 4.2 nM; in data set [4] (120 h, read-out: EC50, H133_Gluc (Gluc activity)), 10 nM; in data set [4] (Huh-7, 120 h, read-out: EC50, Gluc_rcSLα (Gluc activity)) it was greater than 100 nM. For the same compound, the EC50 is 2.5 nM in data set [4] (Huh-7, 120 h, read-out: EC50, H133 (HBsAg)); 4.3 nM in data set [4] (Huh-7, 120 h, read-out: EC50, H133_dLa (HBsAg)); greater than 30000 nM in [9]. In addition, the CC50 in [5] and in data set [8] was greater than 30000 nM each time. In addition, the “sRNA (%) of untreated controls” value in data set [6] was roughly 18%. Further, the “Effect on HBV replication intermediates and viral proteins” value in data set [7] is “reducing intracellular pgRNA, sRNA, core protein, native capsids, encapsidated pgRNA, and replicating HBV DNA”.
